In US8871772B2, “Therapeutic methods and compounds” (Ampio Pharmaceuticals, Inc., priority 2008, dated 2014):

Experiments:
Format in all cases: cell-based
AU565 cells = test: Cytotoxicity on confluent AU565 monolayers, cell titer assay
Protocol: (§1) To determine whether the decrease in cell titer signal caused by Cpd. 5 was due to the inhibition of proliferation or to cytotoxicity, STTG and AU565 cells were seeded at 10,000 cells/well in 96-well plates and grown until a confluent monolayer was obtained. Under these conditions, the cells should no longer proliferate. The culture medium was IMDM supplemented with 10% FBS. After the cells reached confluence, the culture medium was removed by aspiration and replaced with fresh medium containing the test compounds (see Table 2 below). The cell cultures were incubated for an additional 24 hours in the presence of the added compounds and then the cell titer signal was assayed by adding 20 μl Promega cell titer aqueous one reagent to each well. The plates were incubated at 37° C. for an additional 2 hours to allow the colorimetric assay to develop, and the OD of each well was determined in a microplate reader using a 530 nm filter. The OD of wells containing cell titer reagent in culture medium with no cells was subtracted from the OD of all experimental readings.
(§2) The % decrease of the total cell titer signal was determined using the following formula. ((Diluent OD−Experimental OD)/Diluent OD))×100. Data are presented in Table 2 as mean % decrease of cell titer signal of three separate experiments, plus or minus standard deviation. In the mean % decrease column, a positive number means a decrease in cell titer signal, while a negative number means an increase. The p values were calculated versus diluent controls.
(§3) This experiment was repeated, except using incubations of 18 hours, instead of 24 hours, in the presence of the compounds and 4 hours, instead of 2 hours, for color development.

STTG cells = test: Cytotoxicity on confluent STTG monolayers, cell titer assay
Protocol: as §1, §2, §3

Akt = Akt phosphorylation in AU565 breast cancer cells, CASE ELISA (S473); details: Homo sapiens, IGF-1 stimulated; for inhibition at 50 µM: AU565, 50 μM
Protocol: Assays were performed to determine the effect of Cpd. 5 (synthesis described in Example 1) on phosphorylation of Akt in the AU565 breast cancer cell line. Akt (or protein kinase B, PKB) is a serine/threonine kinase that promotes cellular survival. Akt is activated in response to many different growth factors, including IGF-1, EGF, bFGF, insulin, interleukin-3 (IL-3), IL-6, heregulin and VEGF. Akt has three isoforms, and activation of all three isoforms is similar in that phosphorylation of two sites is necessary for full activity. Once activated, Akt exerts anti-apoptotic effects through phosphorylation of substrates that directly or indirectly regulate apoptosis. Activation of the phosphatidylinositol 3 kinase (PI3K)/Akt signaling pathway contributes to tumorigenesis in many types of tissues, including breast, ovarian, brain, prostate and lymph tissues.
AU565 cells were grown in 75 cm^2 flasks using Iscove's modified Dulbecco's medium (IMDM; obtained from Lonza) supplemented with 10% fetal bovine serum (FBS, HyClone) and 1% penicillin/streptomycin solution (Lonza). Cells were removed from the flasks using trypsin/EDTA (Lonza) and counted using trypan blue to establish cell counts. […]
Following this incubation, 100 μl of serum-free IMDM containing either 0 or 400 ng/ml insulin-like growth factor-1 (IGF-1) (obtained from Sigma), an Akt phosphorylation promoter, were added, and the plates incubated at 37° C., 5% CO2, for 1 more hour. At the end of this time, the cells were fixed immediately with 4% formaldehyde, refrigerated, and the extent of phosphorylation of Akt determined using the Akt Cellular Activation of Signaling ELISA (CASE™ Kit for AKT […]; SABiosciences, Frederick, Md.) following the manufacturer's protocols. The CASE™ Kit for AKT S473 quantifies the amount of activated (phosphorylated) Akt protein relative to total Akt protein in parallel assays using a conventional ELISA format with colorimetric detection. […] Both primary antibodies are detected using a horseradish peroxidase-labeled secondary antibody. […]
The results were calculated as follows. […]

WM-266-4 cells = test: Proliferation of WM-266-4 cells (separate experiment); details: concentration not given
Description: As shown there, Cpd. […] It should also be noted that, in a separate experiment, Cpd.

[1] = confluent AU565, 50 μM, 18 hours
[2] = confluent AU565, 50 μM, 24 hours

Row | Compound | MEAN % DECREASE of cell titer signal (AU565 cells; [1]) [%] | MEAN % DECREASE of cell titer signal (AU565 cells; [2]) [%] | MEAN % DECREASE of cell titer signal (STTG cells; 50 μM, 18 hours) [%] | MEAN % DECREASE of cell titer signal (STTG cells; 50 μM, 24 hours) [%] | inhibition at 50 µM (Akt) [%] | inhibition of the proliferation of WM-266-4 cells (WM-266-4 cells) | MEAN % DECREASE of cell titer signal (AU565 cells; confluent AU565, 10 μM, 18 hours) [%] | MEAN % DECREASE of cell titer signal (AU565 cells; confluent AU565, 10 μM, 24 hours) [%] | MEAN % DECREASE of cell titer signal (AU565 cells; confluent AU565, 100 μM, 18 hours) [%] | MEAN % DECREASE of cell titer signal (AU565 cells; confluent AU565, 100 μM, 24 hours) [%] | MEAN % DECREASE of cell titer signal (STTG cells; 10 μM, 18 hours) [%] | MEAN % DECREASE of cell titer signal (STTG cells; 10 μM, 24 hours) [%] | MEAN % DECREASE of cell titer signal (STTG cells; 100 μM, 18 hours) [%] | MEAN % DECREASE of cell titer signal (STTG cells; 100 μM, 24 hours) [%] | inhibition at 10 µM (Akt; AU565, 10 μM) [%]
1 | O=c1cc(N2CCOCC2)oc2c(-c3ccccc3)cccc12 [LY294002, reference compound] | 22.25 | 2.94 | 26.27 | 26.12 | 92.4 | 105% | – | – | – | – | – | – | – | – | –
2 | COC(=O)C(c1ccc(-c2ccccc2)cc1)C1NC(=O)CNC1=O (stereo not drawn) [Cpd. 5, biphenyl-4-yl-(3,6-dioxo-piperazin-2-yl)-acetic acid methyl ester] | −9.73 | −10.79 | 21.25 | −1.76 | 92 | did not inhibit | −5.61 | −8.87 | −10.69 | −11.05 | 0.81 | −7.13 | 18.96 | −10.79 | 104
